For 20 compounds, TGI results are on record in PubChem BioAssay (NCI).

What all share (test): DTP human tumour cell line panel, 48 h
Assay [1] has as its system SF-268 CNS.
Assay [2] deals with BT-549 breast.
The test system of assay [3] is NCI-H226 lung.
In assay [4] the test system is UO-31 renal.
Assay [5] has as its system SK-MEL-28 melanoma.
For assay [6], the system named is RPMI-8226 leukemia.
Assay [7] concerns M14 melanoma.
Assay [8] concerns LOX IMVI melanoma.
Assay [9] concerns NCI-H522 lung.
Assay [10] has as its system KM12 colon.
In assay [11] the test system is SK-MEL-2 melanoma.
In assay [12] the test system is EKVX NSCLC.
Assay [13] has as its system RXF 393 renal.
Assay [14] has as its system A549 NSCLC.

SMILES strings stand for the structures.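 Five concentrations, 48 hours, 96-well plates. TGI denotes the concentration required for complete inhibition of growth.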

By TGI is commonly meant the concentration giving total growth inhibition. High values mean lower sensitivity of the cells, low ones greater sensitivity of the cells.

`COC(=O)c1c(C)cccc1/C=C1\Cc2ccc(C)c(C)c2C1=O`: the TGI in assay [1], in assay [2], in assay [3], in assay [4], in assay [5] and in assay [6] was over 100 µM throughout. In addition, the TGI in [7], in assay [8], in assay [9], in assay [10], in assay [11] and in assay [12] was over 100 µM throughout. In addition, the TGI in assay [13] and in assay [14] was over 100 µM each time.
Turning to `N#Cc1sc2nc3ccccc3n2c1N`, the TGI in [1], in assay [2], in assay [3], in [4], in assay [5] and in [6] was over 100 µM in each case. Besides, the TGI was over 100 µM in assay [7]; over 100 µM in assay [8]; over 100 µM in [9]; 23.6 µM in [10]; 81.7 µM in [11]; over 100 µM in assay [12]. The values for the TGI in [13] and in assay [14] were 67.6 µM and over 100 µM, respectively.
As to `S=C1Cc2c(-c3ccccc3)cc(-c3cccc(Cl)c3)nc2-c2ccccc2N1`, the TGI came out at 17.7 µM in assay [1]; 19.5 µM in assay [2]; 19.4 µM in assay [3]; 16.9 µM in [4]; 51.8 µM in [5]; 56.2 µM in assay [6]. Further, the TGI is over 49.7 µM in assay [7]; 13.7 µM in assay [8]; 13.1 µM in assay [9]; over 100 µM in assay [10]; 28.4 µM in assay [11]; 24.4 µM in assay [12]. Further, the values for the TGI in assay [13] and in [14] were 12.8 µM and 22.5 µM, respectively.
With `O=C(CCc1cc(O)cc(O)c1)NCCc1cc(O)cc(OCc2ccccc2)c1`, the TGI in assay [1] was over 100 µM; in assay [2], 66.1 µM; in assay [3], over 100 µM; in [4], over 100 µM; in [5] it was over 100 µM; in assay [6], 90.5 µM. Also, the TGI in assay [7], in [8], in assay [9], in assay [10], in assay [11] and in assay [12] was over 100 µM in each case. Besides, the TGI in assay [13] and in assay [14] was over 100 µM throughout.
Turning to `Cc1cc2nc3c(C#N)c(-c4ccccc4)/c(=C\Nc4ccc(F)cc4)c(=O)n3c2cc1C`, the TGI in [1], in [2], in assay [3], in [4], in assay [5] and in [6] was over 100 µM each time. Further, the TGI in [7], in [8], in [9], in assay [10], in [11] and in [12] was over 100 µM throughout. The TGI in [13] and in [14] was over 100 µM each time.
Take `C=C1CC[C@@H](CCC2CCC3(OC2)O[C@]2(O)CC[C@@]3(C)OC2(C)C)C(C)(C)[C@H]1C/C=C1\CCOC1=O` (stereo not given in full): the TGI in assay [1] is over 100 µM; in assay [2], 49.1 µM; in [3], 35.2 µM; in [4], over 100 µM; in [5], over 100 µM; in assay [6] it was 31.2 µM. The TGI in [7] was over 100 µM; in assay [8], 20 µM; in assay [9], over 58.9 µM; in assay [10], over 60.3 µM; in assay [11], 48.3 µM; in assay [12] it was over 71.5 µM. Besides, the concentration for total growth inhibition (TGI) in assay [13] is 49.5 µM; in assay [14], over 100 µM.
Consider `COC(=O)/C=C(\C(=O)OC)c1cc(C)c2cc(C(C)C)ccc(C)c1-2`, for which the TGI in [1], in [2], in [3], in assay [4], in assay [5] and in assay [6] was over 100 µM in each case. Moreover, the TGI was over 100 µM in [7]; over 100 µM in assay [8]; 50.3 µM in assay [9]; over 100 µM in assay [10]; over 100 µM in assay [11]; over 100 µM in assay [12]. For the same compound, the TGI in assay [13] and in assay [14] was over 100 µM in each case.
Take `CCOC(=O)c1c2c(n(-c3ccc(C)cc3)c1C)-c1ccccc1C(=O)C2(C(=O)OCC)C(=O)OCC`: the TGI is over 91.9 µM in assay [1]; 55.2 µM in assay [2]; over 94.7 µM in assay [3]; over 100 µM in assay [4]; over 85.5 µM in assay [5]; 57.5 µM in assay [6]. The TGI in assay [7] is over 100 µM; in [8] it was over 84.5 µM; in [9], 79.9 µM; in assay [10], over 100 µM; in [11], over 88.5 µM; in assay [12] it was over 88.2 µM. Besides, the TGI in [13] is 75.2 µM; in [14], over 100 µM.
As to `CCCCCCCCCCCCCCCCCCNc1ccn(C2OC(COP(=O)(O)OCC3OC(n4ccc(N)nc4=O)C(O)C3O)C(O)C2O)c(=O)n1` (stereo not given), the concentration for total growth inhibition (TGI) in assay [1] is over 100 µM; in assay [2] it was over 87.9 µM; in assay [3], over 100 µM; in assay [4], over 100 µM; in [5] it was over 100 µM; in assay [6], over 100 µM. The TGI in assay [7] was over 100 µM; in assay [8] it was 49.4 µM; in [9] it was over 100 µM; in [10] it was over 100 µM; in [11], over 100 µM; in [12] it was over 100 µM. Further, the TGI in assay [13] and in assay [14] was over 100 µM in each case.
Consider `COC(=O)[C@H](Cc1ccccc1)NC(=O)c1ccc(CNC(=O)/C=C/c2csc(-c3ccccc3)n2)cc1`, for which the TGI in assay [1] was over 100 µM; in assay [2] it was over 100 µM; in assay [3], over 100 µM; in assay [4] it was 27.3 µM; in assay [5], 10.9 µM; in assay [6], over 100 µM. For the same compound, the TGI in [7] is 3.81 µM; in assay [8], over 52.8 µM; in assay [9], 13.7 µM; in assay [10], over 100 µM; in assay [11], 9.1 µM; in assay [12] it was over 88.5 µM. Besides, the TGI was 26.8 µM in [13] and over 72.2 µM in assay [14].
Regarding `CSC(=O)/C=C1\SS/C(=C\C(=O)SC)S1`, the TGI in [1] amounted to 6.72 µM; in assay [2], 3.26 µM; in [3], 3.41 µM; in assay [4] it was 6.89 µM; in assay [5] it was 6.34 µM; in assay [6] it was 5.27 µM. Besides, the TGI in [7] was 5.24 µM; in assay [8], 3.09 µM; in assay [9] it was 6.34 µM; in assay [10], 13 µM; in assay [11], 4.93 µM; in assay [12], 6.68 µM. The TGI in [13] amounted to 2.8 µM; in assay [14], 19.6 µM.
As to `N#Cc1c(NC(=O)C(F)(F)F)sc2c3c(=O)c4ccccc4c(=O)c=3oc3ccccc3c12`, the TGI in assay [1] was 61.4 µM; in assay [2], 53.3 µM; in assay [3], 21.2 µM; in assay [4], 46.4 µM; in [5], 51.5 µM; in assay [6], 56.2 µM. In addition, the TGI in [7] was over 61.7 µM; in assay [8], over 59.1 µM; in [9], 32.6 µM; in assay [10] it was 26 µM; in [11], 54.7 µM; in assay [12], 65.4 µM. Also, the TGI is over 63.4 µM in assay [13] and over 77.6 µM in [14].
Take `CC(C)C(Cl)CCC(C)(Cl)C(=O)CBr` (stereo not given): the TGI in assay [1] was found to be 56 µM; in assay [2], 22.6 µM; in assay [3] it was 44.5 µM; in assay [4], 15 µM; in assay [5], 16.3 µM; in [6] it was 2.52 µM. The TGI in assay [7] was 11.3 µM; in assay [8], 2.36 µM; in assay [9], 3.34 µM; in assay [10] it was 29.8 µM; in assay [11], 21.9 µM; in assay [12], 32.8 µM. In addition, the figures for the TGI in [13] and in assay [14] were 7.79 µM and 53.4 µM, respectively.
Turning to `N#Cc1ccccc1OCCOc1ccccc1C#N`, the TGI in [1], in assay [2], in [3], in assay [4], in assay [5] and in assay [6] was over 100 µM throughout. Also, the TGI in assay [7], in assay [8], in assay [9], in assay [10], in [11] and in assay [12] was over 100 µM each time. Moreover, the TGI in [13] and in assay [14] was over 100 µM in each case.
As for `O=c1cc(Nc2cccc(O)c2)[nH]c(=O)[nH]1`, the TGI in [1], in assay [2], in assay [3], in assay [4], in assay [5] and in assay [6] was over 100 µM throughout. Moreover, the TGI in assay [7], in assay [8], in assay [9], in assay [10], in assay [11] and in [12] was over 100 µM each time. Besides, the TGI in assay [13] and in assay [14] was over 100 µM throughout.
For `COc1ccc(/C(Nc2ccccc2)=C(\CCl)c2ccccc2)cc1OC`, the TGI in assay [1], in assay [2], in [3], in assay [4], in assay [5] and in assay [6] was over 100 µM in each case. Further, the TGI is over 100 µM in assay [7]; over 100 µM in [8]; over 100 µM in assay [9]; over 100 µM in assay [10]; 79.9 µM in assay [11]; over 100 µM in [12]. The TGI in assay [13] and in assay [14] was over 100 µM throughout.
As for `CCN1CCC(O)(c2ccc([N+](=O)[O-])cc2)C(C(=O)c2ccc([N+](=O)[O-])cc2)C1` (stereo not given), the TGI in assay [1] worked out at 46 µM; in assay [2], 30.8 µM; in assay [3], 61.3 µM; in assay [4], 36.8 µM; in assay [5], 33.5 µM; in assay [6], 17.8 µM. The TGI in assay [7] is 42.1 µM; in [8], 38.6 µM; in assay [9], 15.1 µM; in assay [10] it was 32.1 µM; in assay [11], over 100 µM; in assay [12] it was 37.6 µM. The TGI in assay [13] was 30 µM; in assay [14], over 100 µM.
On to `CC(=O)c1ccc(Nc2c3c(nc4ccccc24)CCCC3)cc1`, for which the TGI is over 100 µM in [1]; over 41.3 µM in assay [2]; over 100 µM in assay [3]; over 67.1 µM in [4]; over 100 µM in [5]; over 100 µM in assay [6]. The TGI in assay [7] is 41.7 µM; in [8] it was over 41.4 µM; in [9], 16.6 µM; in [10], over 36 µM; in [11], over 100 µM; in [12] it was over 84.6 µM. The values for the TGI in assay [13] and in [14] were 72.4 µM and over 95.5 µM, respectively.
For the compound `COC(=O)/C=C/c1ccc(OP(=O)(O)O)c(OC)c1`, the concentration for total growth inhibition (TGI) in [1], in assay [2], in assay [3], in assay [4], in assay [5] and in assay [6] was over 100 µM throughout. The TGI in assay [7], in [8], in [9], in [10], in assay [11] and in assay [12] was over 100 µM throughout. Moreover, the TGI in assay [13] and in assay [14] was over 100 µM each time.
Consider `COc1ccc2nc3c(c(N)c2c1)C1CCC3C1(C)C` (stereo not given), for which the TGI in assay [1] was over 100 µM; in assay [2], over 100 µM; in assay [3] it was 72 µM; in assay [4], over 100 µM; in assay [5] it was over 100 µM; in [6], 58.7 µM. Also, the TGI in [7] was 33.6 µM; in assay [8], over 100 µM; in assay [9], over 100 µM; in assay [10], over 100 µM; in [11], 67.1 µM; in assay [12], over 100 µM. Also, the TGI in assay [13] was 81.5 µM; in [14] it was over 100 µM.
